Test results reported in US20080058515A1, “Chemical Compounds” (priority 2003, published 2008).

Molecular target: T1, Serum Glucocorticoid-regulated Kinase-1 (SGK-1) (Homo sapiens, UniProt O00141, S422D)
T1 construct: a truncated form of the human enzyme that included amino acids 61-431; 6xHis (N); made in house
T1 sequence (O00141 61-431 S422D): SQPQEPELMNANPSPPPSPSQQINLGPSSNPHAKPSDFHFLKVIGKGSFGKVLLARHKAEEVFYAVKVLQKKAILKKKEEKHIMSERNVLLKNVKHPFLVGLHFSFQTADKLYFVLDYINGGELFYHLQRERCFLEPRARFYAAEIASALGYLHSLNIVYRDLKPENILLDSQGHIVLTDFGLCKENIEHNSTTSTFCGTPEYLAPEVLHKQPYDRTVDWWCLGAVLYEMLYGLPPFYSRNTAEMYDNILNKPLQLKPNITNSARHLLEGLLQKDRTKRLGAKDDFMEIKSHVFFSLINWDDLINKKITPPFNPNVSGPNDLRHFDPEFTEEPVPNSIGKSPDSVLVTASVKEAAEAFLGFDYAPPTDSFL
Experiment: SGK-1 Enzyme Assay (SGK1e), substrate phosphorylation, scintillation proximity
Assay type: biochemical
Settings: truncated human SGK-1 (aa 61-431, S422D), 10 μM ATP, Crosstide substrate
Procedure: Compounds of the present invention were tested for Serum Glucocorticoid-regulated Kinase-1 (SGK-1) protein serine/threonine kinase inhibitory activity in substrate phosphorylation assays using enzyme purified from a baculovirus expression vector system. The recombinant baculovirus was made to express the intracellular domain of SGK-1 (GenBank accession number MD41091). The virus expressed a truncated form of the human enzyme that included amino acids 61-431. Serine422 was replaced with Aspartic acid to activate the enzyme, and 6 Histidine residues were added at the amino terminus to facilitate purification. The protein was purified using Ni-NTA agarose affinity chromatography. The peptide substrate was an N-terminal biotinylated sunthetic peptide named Crosstide (biotin-Ahx-GRPRTSSFAEG-OH), corresponding to the sequence in GSK3 surrounding the serine phosphorylated by MAPKAP Kinase-1/Rsk and p70 S6 Kinase.
The method measures the ability of the isolated enzyme to catalyze the transfer of the γ-phosphate from ATP onto serine/threonine residues in the biotinylated Crosstide. Reactions were performed in 96-well polystyrene round-bottom plates in a final volume of 30 uL. Reaction mixtures contained 62.5 mM HEPES (pH 7.4), 10 mM MgCl2, 0.1 mM EDTA, 0.0024% TWEEN-20, and 1 mM DTT (added fresh daily), 10 μM ATP, 0.2 μCi [[v-^33P] ATP per reaction, 4 μM Crosstide peptide substrate, and 1 nM SGK1 enzyme. Reactions were initiated by adding the indicated enzyme. The reaction was allowed to proceed for 2 hours, then terminated by the addition of 50 mM EDTA and quantified using a scintillation proximity assay procedure as described (McDonald, O. B., Antonsson, B., Arkinstal, S., Marshall, C. J., and Wood, E. R. (1999) Analytical Biochemistry, 268, 318-329).
Compounds under analysis were dissolved in Me2SO to 1 mM and serially diluted 1 to 3 with Me2SO through eleven columns of a 96 well plate. 1 uL of each concentration was transferred to the corresponding well of the assay plate. This created a final compound concentration range from 0.56 nM to 33.3 uM.
The data for dose responses were plotted as % Control calculated with the data reduction formula 100*(U1-C2)/(C1-C2) versus concentration of compound and fitted to the curve described by:
where Vmax is the upper asymptote and K is the IC50

Compound	IC50
CCCN(C)CCOc1ccc(NC(=O)/C=C/c2n[nH]c3ccccc23)cc1OC [Example 19, (2E)-3-(1H-indazol-3-yl)-N-(3-methoxy-4-{2-[methyl(propyl)amino]ethoxy}phenyl)-2-propenamide]	< 1 µM
N#Cc1ccccc1NC(=O)/C=C/c1n[nH]c2ccccc12 [Example 3, (2E)-N-(2-cyanophenyl)-3-(1H-indazol-3-yl)-2-propenamide]	< 1 µM
O=C(/C=C/c1n[nH]c2ccccc12)Nc1ccc2ncsc2c1 [Example 1, (2E)-N-(1,3-benzothiazol-6-yl)-3-(1H-indazol-3-yl)-2-propenamide]	< 1 µM
CCOC(=O)C1CCN(C(=O)/C=C/c2n[nH]c3ccccc23)CC1 [Example 27, Ethyl 1-[(2E)-3-(1H-indazol-3-yl)prop-2-enoyl]piperidine-4-carboxylate]	1 to 10 µM
CC(C)CNC(=O)/C=C/c1n[nH]c2ccccc12 [Example 24, (2E)-3-(1H-indazol-3-yl)-N-isobutylprop-2-enamide]	1 to 10 µM
O=C(/C=C/c1n[nH]c2ccccc12)Nc1ccc(C(=O)NCCc2cccnc2)cc1 [Example 36, 4-(((2E)-3-(1H-indazol-3-yl)prop-2-enoyl)amino)-N-(2-pyridin-3-ylethyl)benzamide]	< 1 µM
O=C(/C=C/c1n[nH]c2ccccc12)Nc1cccc(C(=O)c2ccccc2)c1 [Example 12, (2E)-N-(3-benzoylphenyl)-3-(1H-indazol-3-yl)-2-propenamide]	< 1 µM
CCN(Cc1ccncc1)C(=O)c1cccc(NC(=O)/C=C/c2n[nH]c3ccccc23)c1 [Example 41, N-ethyl-3-(((2E)-3-(1H-indazol-3-yl)prop-2-enoyl)amino)-N-(pyridin-4-ylmethyl)benzamide]	< 1 µM
COc1cc(NC(=O)/C=C/c2n[nH]c3ccccc23)ccc1OCCN(C(C)C)C(C)C [Example 15, (2E)-N-[4-[2-(diisopropylamino)ethoxy]-3-methoxyphenyl]-3-(1H-indazol-3-yl)-2-propenamide]	< 1 µM
O=C(/C=C/c1n[nH]c2ccccc12)N1CCC2(CC1)C(=O)NCN2c1ccccc1 [Example 30, 8-[(2E)-3-(1H-indazol-3-yl)prop-2-enoyl]-1-phenyl-1,3,8-triazaspiro[4.5]decan-4-one]	< 1 µM
